In patent US20110053916A1 (Vertex Pharmaceuticals Incorporated, priority 2009, published 2011):
pKi: −log10 of the molar value. Counter-ions that a name gives are not always drawn. Like-named read-outs stand apart in the source and are kept apart here.

Key:
PknB = target: T1, PknB (Mycobacterium tuberculosis, UniProt P9WI81); assay: biochemical; parameters: species or system M. tuberculosis; conditions: for pKi: read-out: Ki Values
T1 construct: made in house

[1] = tested on: Mycobacterium tuberculosis H37Ra; assay: Mycobacterium tuberculosis growth inhibition assay (microtiter dilution, resazurin reduction); type: cell-based; conditions: 7H9 broth, 9 days + 24 h resazurin, lowest concentration inhibiting resazurin reduction by >70%, several symbols in a cell = repeat determinations
Method in brief: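 M. tuberculosis H37Ra at ~1×10^6 cells/mL in 7H9 broth plus 10% ADC, exposed to 2-fold serial dilutions (7 or 11 steps) at 37 °C for 9 days. Resazurin then added, fluorescence (492/595 nm) read at baseline and after 24 h; MIC = lowest concentration inhibiting resazurin reduction >70% versus DMSO.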

[2] = 3 nM PknB, 6 uM GarA, 3 μM ATP, 30 min, competitive tight-binding fit, several symbols in a cell = repeat determinations

T1 sequence (P9WI81 whole entry): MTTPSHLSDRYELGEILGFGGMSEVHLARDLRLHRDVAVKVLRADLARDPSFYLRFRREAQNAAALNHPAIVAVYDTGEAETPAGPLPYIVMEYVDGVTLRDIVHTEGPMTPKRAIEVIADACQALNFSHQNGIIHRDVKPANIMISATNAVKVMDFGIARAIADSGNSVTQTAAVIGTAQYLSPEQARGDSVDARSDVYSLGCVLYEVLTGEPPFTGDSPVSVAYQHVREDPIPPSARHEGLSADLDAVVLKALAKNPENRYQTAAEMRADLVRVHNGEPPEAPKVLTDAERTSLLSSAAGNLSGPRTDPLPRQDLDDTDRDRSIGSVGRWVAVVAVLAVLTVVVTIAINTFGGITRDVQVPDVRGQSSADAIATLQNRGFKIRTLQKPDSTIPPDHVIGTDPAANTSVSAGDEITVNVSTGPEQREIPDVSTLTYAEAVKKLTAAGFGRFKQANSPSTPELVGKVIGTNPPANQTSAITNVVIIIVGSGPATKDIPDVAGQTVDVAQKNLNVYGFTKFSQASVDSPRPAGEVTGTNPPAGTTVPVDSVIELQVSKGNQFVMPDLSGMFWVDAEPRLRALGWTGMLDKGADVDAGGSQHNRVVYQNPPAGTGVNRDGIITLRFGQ

SMILES | Ki Values (PknB; [2]) | MIC values [1] | pKi (PknB; [2]) | Ki Values (PknB)
O=S(=O)(NC1CCOCC1)c1ccc(-c2ncc(Cl)c(Nc3cc(C4CC4)[nH]n3)n2)s1 [Compound 148, 5-[5-chloro-4-[(5-cyclopropyl-1H-pyrazol-3-yl)amino]-pyrimidin-2-yl]-N-tetrahydropyran-4-yl-thiophene-2-sulfonamide] | A, B** | B, C | – | –
Cc1cnc(-c2ccc(S(=O)(=O)NC(C)(C)C)s2)nc1Nc1cc(C2CC2)n(C)n1 [Compound 149, 5-[4-[(5-cyclopropyl-1-methyl-pyrazol-3-yl)amino]-5-methyl-pyrimidin-2-yl]-N-tert-butyl-thiophene-2-sulfonamide] | – | B+ | < 5.40 | –
NS(=O)(=O)c1ccc(-c2ncc(C(F)(F)F)c(Nc3cc(C4CC4)[nH]n3)n2)s1 [Compound 159, 5-(4-(5-cyclopropyl-1H-pyrazol-3-ylamino)-5-(trifluoromethyl)pyrimidin-2-yl)thiophene-2-sulfonamide] | – | B+ | 6.30 to 7.00 | –
C#Cc1cnc(-c2ccc(CN)s2)nc1Nc1cc(C2CC2)[nH]n1 [Compound 167, 2-(5-(aminomethyl)thiophen-2-yl)-N-(5-cyclopropyl-1H-pyrazol-3-yl)-5-ethynylpyrimidin-4-amine hydrochloride] | – | B++ | – | A, A, A, B**
CC(C)(C)NS(=O)(=O)c1ccc(-c2ncc(Br)c(Nc3cc(C4CC4)[nH]n3)n2)s1 [Compound 170, 5-[5-bromo-4-[(5-cyclopropyl-1H-pyrazol-3-yl)amino]-pyrimidin-2-yl]-N-tert-butyl-thiophene-2-sulfonamide] | A*, A | B+ | – | –
NS(=O)(=O)c1ccc(-c2ncc(CO)c(Nc3cc(C4CC4)n[nH]3)n2)s1 [Compound 171, 5-(4-(5-cyclopropyl-1H-pyrazol-3-ylamino)-5-(hydroxymethyl)pyrimidin-2-yl)thiophene-2-sulfonamide] | A, B**, B** | B++ | – | –
C#Cc1cnc(N2CC[C@@H](NC(=O)OC(C)(C)C)C2)nc1Nc1cc(C2CC2)n[nH]1 [Compound 173, tert-butyl [[1-[4-[(5-cyclopropyl-2H-pyrazol-3-yl)amino]-5-ethynyl-pyrimidin-2-yl]pyrrolidin-3-yl]amino]formate] | B, C | B+ | – | –
C#Cc1cnc(-c2ccc(C(C)(C)O)s2)nc1Nc1cc(C2CC2)[nH]n1 [Compound 180, 2-(5-(4-(5-Cyclopropyl-1H-pyrazol-3-ylamino)-5-ethynylpyrimidin-2-yl)thiophen-2-yl)propan-2-ol] | – | B++ | 7.30 to 8.00 | –
CCOC(=O)C(O)c1ccc(-c2ncc(Cl)c(Nc3cc(C4CC4)[nH]n3)n2)s1 (centres unmarked) [Compound 191, Ethyl 2-(5-(5-chloro-4-(5-cyclopropyl-1H-pyrazol-3-ylamino)pyrimidin-2-yl)thiophen-2-yl)-2-hydroxyacetate] | A*, B** | B, C | – | –
C#Cc1cnc(-c2ccc(S(=O)(=O)NC(C)=O)s2)nc1Nc1cc(C2CC2)[nH]n1 [Compound 192, N-(5-(4-(5-cyclopropyl-1H-pyrazol-3-ylamino)-5-ethynylpyrimidin-2-yl)thiophen-2-ylsulfonyl)acetamide] | – | B, C | 6.30 to 7.00 | –
CC(C)(C)OC(=O)/N=C(\N)c1ccc(-c2ncc(Cl)c(Nc3cc(C4CC4)[nH]n3)n2)s1 [Compound 197, tert-butyl [[amino-[5-[5-chloro-4-[(5-cyclopropyl-1H-pyrazol-3-yl)amino]-pyrimidin-2-yl]-2-thienyl]-methylene]amino]formate] | – | B+ | 6.00 to 6.30 | –
C#Cc1cnc(-c2ccc([C@H](C)O)s2)nc1Nc1cc(C2CC2)n[nH]1 [Compound 198, (S)-1-(5-(4-(3-cyclopropyl-1H-pyrazol-5-ylamino)-5-ethynylpyrimidin-2-yl)thiophen-2-yl)ethanol] | – | A, A, A, B++ | 8.00 to 9.00 | –
C#Cc1cnc(N2CCCC2C(=O)OC)nc1Nc1cc(C2CC2)n[nH]1 (centres unmarked) [Compound 200, methyl 1-[4-[(5-cyclopropyl-2H-pyrazol-3-yl)amino]-5-ethynyl-pyrimidin-2-yl]pyrrolidine-2-carboxylate] | B, D, D | B, C | – | –
O=[N+]([O-])c1ccc(-c2ncc(Cl)c(Nc3cc(C4CC4)[nH]n3)n2)s1 [Compound 203, 5-Chloro-N-(5-cyclopropyl-1H-pyrazol-3-yl)-2-(5-nitrothiophen-2-yl)pyrimidin-4-amine] | – | A+, A | 8.00 to 9.00 | –
O=[N+]([O-])c1csc(-c2ncc(Cl)c(Nc3cc(C4CC4)[nH]n3)n2)c1 [Compound 204, 5-chloro-N-(5-cyclopropyl-1H-pyrazol-3-yl)-2-(4-nitrothiophen-2-yl)pyrimidin-4-amine] | – | B+ | 7.30 to 8.00 | –
[H]/N=C(\N)c1ccc(-c2ncc(Cl)c(Nc3cc(C4CC4)[nH]n3)n2)s1 [Compound 205, 5-(5-chloro-4-(5-cyclopropyl-1H-pyrazol-3-ylamino)pyrimidin-2-yl)thiophene-2-carboximidamide] | A, B** | B, C | – | –

SMILES | Ki Values (PknB; [2]) | MIC values [1] | pKi (PknB; [2]) | Ki Values (PknB)
C#Cc1cnc(-c2ccc([C@@H](C)O)s2)nc1Nc1cc(C2CC2)n[nH]1 [Compound 212, (R)-1-(5-(4-(3-cyclopropyl-1H-pyrazol-5-ylamino)-5-ethynylpyrimidin-2-yl)thiophen-2-yl)ethanol] | A**, A**, A* | A, B++ | – | –
C#Cc1cnc(-c2ccc([C@H](O)C(C)C)s2)nc1Nc1cc(C2CC2)n[nH]1 [Compound 214, 1-[5-[4-[(5-cyclopropyl-2H-pyrazol-3-yl)amino]-5-ethynyl-pyrimidin-2-yl]-2-thienyl]-2-methyl-propan-1-ol] | A**, A**, A* | B++ | – | –
C#Cc1cnc(-c2ccc([C@H](O)CCC)s2)nc1Nc1cc(C2CC2)n[nH]1 [Compound 215, 1-[5-[4-[(5-cyclopropyl-2H-pyrazol-3-yl)amino]-5-ethynyl-pyrimidin-2-yl]-2-thienyl]butan-1-ol] | A**, A**, A* | B++ | – | –
CC(C)(C)NS(=O)(=O)c1ccc(-c2ncc(C#CCO)c(Nc3cc(C4CC4)[nH]n3)n2)s1 [Compound 216, N-tert-butyl-5-(4-(5-cyclopropyl-1H-pyrazol-3-ylamino)-5-(3-hydroxyprop-1-ynyl)pyrimidin-2-yl)thiophene-2-sulfonamide] | – | B+ | 5.70 to 6.00 | –
O=[N+]([O-])c1ccc(-c2ncc(Cl)c(Nc3cc(C4CC4)[nH]n3)n2)o1 [Compound 222, 5-chloro-N-(5-cyclopropyl-1H-pyrazol-3-yl)-2-(5-nitrofuran-2-yl)pyrimidin-4-amine] | – | A+, A | 8.00 to 9.00 | –
C#Cc1cnc(-c2ccc(C(O)CCCO)s2)nc1Nc1cc(C2CC2)[nH]n1 (centres unmarked) [Compound 223, 1-[5-[4-[(5-cyclopropyl-1H-pyrazol-3-yl)amino]-5-ethynyl-pyrimidin-2-yl]-2-thienyl]butane-1,4-diol] | – | B++ | 8.00 to 9.00 | –
Cc1cc(Nc2nc(-c3ccc(S(N)(=O)=O)s3)ncc2Cl)n[nH]1 [Compound 224, 5-[5-chloro-4-[(5-methyl-1H-pyrazol-3-yl)amino]-pyrimidin-2-yl]thiophene-2-sulfonamide] | – | B++ | 8.00 to 9.00 | –
CC(C)c1cc(Nc2nc(-c3ccc(S(N)(=O)=O)s3)ncc2Cl)n[nH]1 [Compound 225, 5-[5-chloro-4-[(5-isopropyl-1H-pyrazol-3-yl)amino]-pyrimidin-2-yl]thiophene-2-sulfonamide] | – | B++ | 8.00 to 9.00 | –
CC(C#N)c1ccc(-c2ncc(Cl)c(Nc3cc(C4CC4)[nH]n3)n2)s1 (centres unmarked) [Compound 226, 2-[5-[5-chloro-4-[(5-cyclopropyl-1H-pyrazol-3-yl)amino]-pyrimidin-2-yl]-2-thienyl]propanenitrile] | – | B++ | 7.30 to 8.00 | –
C#Cc1cnc(-c2ccc(C(C)C#N)s2)nc1Nc1cc(C2CC2)[nH]n1 (centres unmarked) [Compound 227, 2-[5-[4-[(5-cyclopropyl-1H-pyrazol-3-yl)amino]-5-ethynyl-pyrimidin-2-yl]-2-thienyl]propanenitrile] | – | B++ | 8.00 to 9.00 | –
OC1/C=C\c2c(n[nH]c2C2CC2)Nc2nc(ncc2Cl)-c2ccccc21 (centres unmarked) [Compound 232, chloro-cyclopropyl-BLAHol] | – | B, C | < 5.40 | –
CC(C)(C)c1cc(Nc2nc(-c3ccc(S(N)(=O)=O)s3)ncc2Cl)n[nH]1 [Compound 236, 5-(4-(5-tert-butyl-1H-pyrazol-3-ylamino)-5-chloropyrimidin-2-yl)thiophene-2-sulfonamide] | – | A+, A, A, A, A | 6.30 to 7.00 | –
C#Cc1cnc(-c2ccc(C(C)(C)C#N)s2)nc1Nc1cc(C2CC2)[nH]n1 [Compound 237, 2-[5-[4-[(5-cyclopropyl-1H-pyrazol-3-yl)amino]-5-ethynyl-pyrimidin-2-yl]-2-thienyl]-2-methyl-propanenitrile] | – | B++ | 8.00 to 9.00 | –
CC(C)(C#N)c1ccc(-c2ncc(Cl)c(Nc3cc(C4CC4)[nH]n3)n2)s1 [Compound 238, 2-[5-[5-chloro-4-[(5-cyclopropyl-1H-pyrazol-3-yl)amino]-pyrimidin-2-yl]-2-thienyl]-2-methyl-propanenitrile] | – | B++ | 8.00 to 9.00 | –
NS(=O)(=O)c1ccc(-c2ncc(Cl)c(Nc3cc(C4CC4)[nH]n3)n2)o1 [Compound 240, 5-(5-chloro-4-(5-cyclopropyl-1H-pyrazol-3-ylamino)pyrimidin-2-yl)furan-2-sulfonamide] | – | B++ | 7.30 to 8.00 | –
